pIC50: −log10 of the molar value. Where only a bound is given, the exact number is not on record here.

The target in the first assay is T1, Heme oxygenase 2 (Rattus norvegicus, UniProt P23711).
T1 sequence (P23711 whole entry): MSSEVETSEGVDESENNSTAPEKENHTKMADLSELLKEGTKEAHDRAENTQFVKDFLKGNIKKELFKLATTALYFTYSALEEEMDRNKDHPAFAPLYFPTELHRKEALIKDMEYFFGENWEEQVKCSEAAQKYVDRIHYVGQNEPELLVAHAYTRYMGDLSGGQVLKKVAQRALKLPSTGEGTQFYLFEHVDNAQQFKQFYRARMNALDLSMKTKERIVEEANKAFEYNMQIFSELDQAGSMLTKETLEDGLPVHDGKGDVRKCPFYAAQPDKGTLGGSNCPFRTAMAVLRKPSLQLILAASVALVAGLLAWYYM
Kind of assay: Inhibition of HO-2 in Sprague-Dawley rat brain microsomal fractions assessed as carbon monoxide formation from methemalbumin after 10 mins by gas chromatography analysis. The class given is microsomes.
Conditions: not given
`Clc1ccc(Cn2c(CN3CCCC3)nc3ccccc32)c(Cl)c1`: the pIC50 (as a rule, the negative decadic logarithm of the IC50, by convention in mol/L) was 5.21.
In the case of `Clc1cccc(Cn2c(CN3CCCC3)nc3ccccc32)c1Cl`, the pIC50 is 4.83.
Same read-out and setting: next, `N#Cc1ccc(Cn2c(CN3CCCC3)nc3ccccc32)cc1`: 4.96; `c1ccc(COc2ccc(Cn3c(CN4CCCC4)nc4ccccc43)cc2)cc1`: 4.20; `Brc1cccc(Cn2c(CN3CCCC3)nc3ccccc32)c1`: 5.82.
The same measure, in the same setting: next, `Clc1cccc(Cl)c1Cn1c(CN2CCCC2)nc2ccccc21`: 5.04.
The same measure, in the same setting: the value for `Clc1ccc(Cl)c(Cn2c(CN3CCCC3)nc3ccccc32)c1` was 5.40; that for `CC(C)c1ccc(Cn2c(CN3CCCC3)nc3ccccc32)cc1` was 4.26; that for `Brc1ccccc1Cn1c(CN2CCCC2)nc2ccccc21` was 5.80.
In the case of `Cc1ccc(Cn2c(CN3CCCC3)nc3ccccc32)cc1`, the negative-log IC50 (pIC50) is 5.30.
Take `Fc1ccc(Cn2c(CN3CCCC3)nc3ccccc32)cc1`: the pIC50 was 5.70.
The same measure, in the same setting: the value for `O=[N+]([O-])c1ccc(Cn2c(CN3CCCC3)nc3ccccc32)cc1` was 4.57.
Same read-out and setting: next, `Cc1ccccc1Cn1c(CN2CCCC2)nc2ccccc21`: 5.74.
On the same count and under the same terms, the value for `O=[N+]([O-])c1ccccc1Cn1c(CN2CCCC2)nc2ccccc21` was 5.46; that for `c1ccc(Cn2c(CN3CCCC3)nc3ccccc32)cc1` was 5.51.
Regarding `Clc1ccc(Cn2c(CN3CCCC3)nc3ccccc32)cc1Cl`, the pIC50 was 4.77.
Same read-out and setting: next, `Brc1ccc(Cn2c(CN3CCCC3)nc3ccccc32)cc1`: 5.59.
On the same count and under the same terms, the value for `c1ccc2cc(Cn3c(CN4CCCC4)nc4ccccc43)ccc2c1` was 5.30; that for `O=[N+]([O-])c1cccc(Cn2c(CN3CCCC3)nc3ccccc32)c1` was 5.89; that for `COc1ccc(Cn2c(CN3CCCC3)nc3ccccc32)cc1` was 4.74.
On the same count and under the same terms, the value for `FC(F)(F)c1ccc(Cn2c(CN3CCCC3)nc3ccccc32)cc1` was 4.81; that for `c1ccc(CCn2c(CN3CCCC3)nc3ccccc32)cc1` was 5.57; that for `Ic1ccc(Cn2c(CN3CCCC3)nc3ccccc32)cc1` was 5.12.
Take `Cc1cccc(Cn2c(CN3CCCC3)nc3ccccc32)c1`: the negative-log IC50 (pIC50) is 5.30.
`c1ccc(C(c2ccccc2)n2c(CN3CCCC3)nc3ccccc32)cc1`: the pIC50 is 5.39.
As for `c1ccc2[nH]c(CN3CCCC3)nc2c1`, the pIC50 was under 4.00.
As to `Clc1cccc(Cn2c(CN3CCCC3)nc3ccccc32)c1`, the pIC50 was 5.78.
Same read-out and setting: the value for `CCCn1c(CN2CCCC2)nc2ccccc21` was 4.57.
As for `c1ccc(OCCn2c(CN3CCCC3)nc3ccccc32)cc1`, the negative-log IC50 (pIC50) was under 4.00.
The same measure, in the same setting: the value for `Clc1ccc(Cn2c(CN3CCCC3)nc3ccccc32)cc1` was 5.47; that for `c1ccc2c(c1)nc(CN1CCCC1)n2CC1CCCCC1` was 5.22.
In the case of `CSc1ccc(Cn2c(CN3CCCC3)nc3ccccc32)cc1`, the pIC50 was 4.82.
With `N#Cc1cccc(Cn2c(CN3CCCC3)nc3ccccc32)c1`, the negative logarithm of the IC50 (pIC50) is 4.80.
Same read-out and setting: next, `Clc1cc(Cl)cc(Cn2c(CN3CCCC3)nc3ccccc32)c1`: 5.68; `Clc1ccccc1Cn1c(CN2CCCC2)nc2ccccc21`: 5.32; `N#Cc1ccccc1Cn1c(CN2CCCC2)nc2ccccc21`: 5.40.

Another assay addresses T2, Heme oxygenase 1 (Rattus norvegicus, UniProt P06762).
T2 sequence (P06762 whole entry): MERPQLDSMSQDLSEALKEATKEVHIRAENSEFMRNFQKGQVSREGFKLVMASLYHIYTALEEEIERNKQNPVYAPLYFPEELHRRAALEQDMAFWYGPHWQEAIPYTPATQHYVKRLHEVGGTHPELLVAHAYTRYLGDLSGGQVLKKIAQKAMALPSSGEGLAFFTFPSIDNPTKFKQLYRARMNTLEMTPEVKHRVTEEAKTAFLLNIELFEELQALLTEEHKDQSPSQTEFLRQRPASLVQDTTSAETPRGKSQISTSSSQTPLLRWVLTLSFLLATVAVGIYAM
The assay is described as follows: Inhibition of HO-1 in Sprague-Dawley rat spleen microsomal fractions assessed as carbon monoxide formation from methemalbumin after 10 mins by gas chromatography analysis.
Conditions: not given
The class given is microsomes, Microsome.
Turning to `Clc1ccc(Cn2c(CN3CCCC3)nc3ccccc32)c(Cl)c1`, the negative-log IC50 (pIC50) is 4.21.
Regarding `Clc1cccc(Cn2c(CN3CCCC3)nc3ccccc32)c1Cl`, the pIC50 is under 4.00.
Take `N#Cc1ccc(Cn2c(CN3CCCC3)nc3ccccc32)cc1`: the pIC50 was under 4.00.
`c1ccc(COc2ccc(Cn3c(CN4CCCC4)nc4ccccc43)cc2)cc1`: the pIC50 is under 4.00.
Take `Brc1cccc(Cn2c(CN3CCCC3)nc3ccccc32)c1`: the negative logarithm of the IC50 (pIC50) is under 4.00.
In the case of `Clc1cccc(Cl)c1Cn1c(CN2CCCC2)nc2ccccc21`, the pIC50 is under 4.00.
Same read-out and setting: the value for `Clc1ccc(Cl)c(Cn2c(CN3CCCC3)nc3ccccc32)c1` was 4.02; that for `CC(C)c1ccc(Cn2c(CN3CCCC3)nc3ccccc32)cc1` was under 4.00; that for `Brc1ccccc1Cn1c(CN2CCCC2)nc2ccccc21` was 4.38.
In the case of `Cc1ccc(Cn2c(CN3CCCC3)nc3ccccc32)cc1`, the pIC50 is under 4.00.
With `Fc1ccc(Cn2c(CN3CCCC3)nc3ccccc32)cc1`, the negative-log IC50 (pIC50) was under 4.00.
Still for that read-out and setting: the value for `O=[N+]([O-])c1ccc(Cn2c(CN3CCCC3)nc3ccccc32)cc1` was under 4.00.
The same measure, in the same setting: next, `Cc1ccccc1Cn1c(CN2CCCC2)nc2ccccc21`: 4.12.
As to `O=[N+]([O-])c1ccccc1Cn1c(CN2CCCC2)nc2ccccc21`, the pIC50 was under 4.00.
The same measure, in the same setting: the value for `c1ccc(Cn2c(CN3CCCC3)nc3ccccc32)cc1` was under 4.00; that for `Clc1ccc(Cn2c(CN3CCCC3)nc3ccccc32)cc1Cl` was under 4.00.
The same measure, in the same setting: next, `Brc1ccc(Cn2c(CN3CCCC3)nc3ccccc32)cc1`: under 4.00.
`c1ccc2cc(Cn3c(CN4CCCC4)nc4ccccc43)ccc2c1`: the pIC50 is under 4.00.
Still for that read-out and setting: next, `O=[N+]([O-])c1cccc(Cn2c(CN3CCCC3)nc3ccccc32)c1`: under 4.00; `COc1ccc(Cn2c(CN3CCCC3)nc3ccccc32)cc1`: under 4.00.
On the same count and under the same terms, next, `FC(F)(F)c1ccc(Cn2c(CN3CCCC3)nc3ccccc32)cc1`: under 4.00.
Turning to `c1ccc(CCn2c(CN3CCCC3)nc3ccccc32)cc1`, the negative logarithm of the IC50 (pIC50) is under 4.00.
Same read-out and setting: next, `Ic1ccc(Cn2c(CN3CCCC3)nc3ccccc32)cc1`: under 4.00; `Cc1cccc(Cn2c(CN3CCCC3)nc3ccccc32)c1`: under 4.00.
Still for that read-out and setting: the value for `c1ccc(C(c2ccccc2)n2c(CN3CCCC3)nc3ccccc32)cc1` was under 4.00.
With `c1ccc2[nH]c(CN3CCCC3)nc2c1`, the negative-log IC50 (pIC50) was under 4.00.
Still for that read-out and setting: next, `Clc1cccc(Cn2c(CN3CCCC3)nc3ccccc32)c1`: under 4.00; `CCCn1c(CN2CCCC2)nc2ccccc21`: under 4.00; `c1ccc(OCCn2c(CN3CCCC3)nc3ccccc32)cc1`: under 4.00.
The same measure, in the same setting: next, `Clc1ccc(Cn2c(CN3CCCC3)nc3ccccc32)cc1`: under 4.00; `c1ccc2c(c1)nc(CN1CCCC1)n2CC1CCCCC1`: under 4.00.
Take `CSc1ccc(Cn2c(CN3CCCC3)nc3ccccc32)cc1`: the pIC50 is under 4.00.
With `N#Cc1cccc(Cn2c(CN3CCCC3)nc3ccccc32)c1`, the pIC50 was under 4.00.
For the compound `Clc1cc(Cl)cc(Cn2c(CN3CCCC3)nc3ccccc32)c1`, the negative-log IC50 (pIC50) is under 4.00.
On the same count and under the same terms, the value for `Clc1ccccc1Cn1c(CN2CCCC2)nc2ccccc21` was under 4.00.
The same measure, in the same setting: next, `N#Cc1ccccc1Cn1c(CN2CCCC2)nc2ccccc21`: under 4.00.

The species named for a further assay is Rattus norvegicus. The assay is described as follows: Selectivity index, ratio of IC50 for HO-1 in Sprague-Dawley rat spleen microsomal fractions to IC50 for HO-2 in Sprague-Dawley rat brain microsomal fractions. In kind it is microsomes. Conditions: Microsome.
As for `Clc1ccc(Cn2c(CN3CCCC3)nc3ccccc32)c(Cl)c1`, the Ratio IC50 was 10.
The same measure, in the same setting: next, `Clc1cccc(Cn2c(CN3CCCC3)nc3ccccc32)c1Cl`: over 6.
Same read-out and setting: the value for `N#Cc1ccc(Cn2c(CN3CCCC3)nc3ccccc32)cc1` was over 9; that for `c1ccc(COc2ccc(Cn3c(CN4CCCC4)nc4ccccc43)cc2)cc1` was over 1.5; that for `Brc1cccc(Cn2c(CN3CCCC3)nc3ccccc32)c1` was over 66.
Consider `Clc1cccc(Cl)c1Cn1c(CN2CCCC2)nc2ccccc21`, for which the Ratio IC50 is over 10.
In the case of `Clc1ccc(Cl)c(Cn2c(CN3CCCC3)nc3ccccc32)c1`, the Ratio IC50 amounted to 24.
Still for that read-out and setting: next, `CC(C)c1ccc(Cn2c(CN3CCCC3)nc3ccccc32)cc1`: over 1.8; `Brc1ccccc1Cn1c(CN2CCCC2)nc2ccccc21`: 26; `Cc1ccc(Cn2c(CN3CCCC3)nc3ccccc32)cc1`: over 20.
The same measure, in the same setting: the value for `Fc1ccc(Cn2c(CN3CCCC3)nc3ccccc32)cc1` was over 50; that for `O=[N+]([O-])c1ccc(Cn2c(CN3CCCC3)nc3ccccc32)cc1` was over 3.
On the same count and under the same terms, the value for `Cc1ccccc1Cn1c(CN2CCCC2)nc2ccccc21` was 42; that for `O=[N+]([O-])c1ccccc1Cn1c(CN2CCCC2)nc2ccccc21` was over 28; that for `c1ccc(Cn2c(CN3CCCC3)nc3ccccc32)cc1` was over 32.
For `Clc1ccc(Cn2c(CN3CCCC3)nc3ccccc32)cc1Cl`, the Ratio IC50 was over 5.
The same measure, in the same setting: the value for `Brc1ccc(Cn2c(CN3CCCC3)nc3ccccc32)cc1` was over 38.
The same measure, in the same setting: the value for `c1ccc2cc(Cn3c(CN4CCCC4)nc4ccccc43)ccc2c1` was over 20.
On the same count and under the same terms, the value for `O=[N+]([O-])c1cccc(Cn2c(CN3CCCC3)nc3ccccc32)c1` was over 76.
Turning to `COc1ccc(Cn2c(CN3CCCC3)nc3ccccc32)cc1`, the Ratio IC50 was over 5.
The same measure, in the same setting: next, `FC(F)(F)c1ccc(Cn2c(CN3CCCC3)nc3ccccc32)cc1`: over 6.4; `c1ccc(CCn2c(CN3CCCC3)nc3ccccc32)cc1`: over 37; `Ic1ccc(Cn2c(CN3CCCC3)nc3ccccc32)cc1`: over 13.
Still for that read-out and setting: the value for `Cc1cccc(Cn2c(CN3CCCC3)nc3ccccc32)c1` was over 20; that for `c1ccc(C(c2ccccc2)n2c(CN3CCCC3)nc3ccccc32)cc1` was over 24.
Same read-out and setting: next, `Clc1cccc(Cn2c(CN3CCCC3)nc3ccccc32)c1`: over 60; `CCCn1c(CN2CCCC2)nc2ccccc21`: over 3.
As to `Clc1ccc(Cn2c(CN3CCCC3)nc3ccccc32)cc1`, the Ratio IC50 was over 29.
On the same count and under the same terms, next, `c1ccc2c(c1)nc(CN1CCCC1)n2CC1CCCCC1`: over 16; `CSc1ccc(Cn2c(CN3CCCC3)nc3ccccc32)cc1`: over 6.
For the compound `N#Cc1cccc(Cn2c(CN3CCCC3)nc3ccccc32)c1`, the Ratio IC50 is over 6.
The same measure, in the same setting: the value for `Clc1cc(Cl)cc(Cn2c(CN3CCCC3)nc3ccccc32)c1` was over 47.
The same measure, in the same setting: next, `Clc1ccccc1Cn1c(CN2CCCC2)nc2ccccc21`: over 20.
The same measure, in the same setting: next, `N#Cc1ccccc1Cn1c(CN2CCCC2)nc2ccccc21`: over 25.

(Values after ChEMBL document CHEMBL2434827, “Selective inhibition of heme oxygenase-2 activity by analogs of 1-(4-chlorobenzyl)-2-(pyrrolidin-1-ylmethyl)-1H-benzimidazole (clemizole): Exploration of the effects of substituents at the N-1 position” (Bioorg Med Chem, 2013).)
